Experimental data taken from ChEMBL document CHEMBL1139242, “Peptide deformylase inhibitors of Mycobacterium tuberculosis: synthesis, structural investigations, and biological results” (Bioorg Med Chem Lett, 2008).
In brackets after ≈: the same amount, converted by molar mass.

Columns and labels:
Type in all cases: functional
Conditions in all cases: 336 h
[1] = test system: Mycobacterium tuberculosis; experiment: Antitubercular activity against rifampicin-resistant Mycobacterium tuberculosis after 14 days by turbidimetric assay
[2] = test system: Mycobacterium tuberculosis; experiment: Antitubercular activity against isoniazid-resistant Mycobacterium tuberculosis after 14 days by turbidimetric assay
[3] = test system: Mycobacterium tuberculosis; experiment: Antitubercular activity against streptomycin-resistant Mycobacterium tuberculosis after 14 days by turbidimetric assay
[4] = test system: Mycobacterium tuberculosis; experiment: Antitubercular activity against pyrazinamide-resistant Mycobacterium tuberculosis after 14 days by turbidimetric assay
[5] = test system: Mycobacterium tuberculosis; experiment: Antitubercular activity against Beijing W multidrug resistant Mycobacterium tuberculosis after 14 days by turbidimetric assay

Compound	MIC [1] [µg/mL]	MIC [2] [µg/mL]	MIC [3] [µg/mL]	MIC [4] [µg/mL]	MIC [5] [µg/mL]
CCCC[C@H](CN(O)C=O)C(=O)N1CCC[C@H]1C(=O)Nc1ccccn1	0.25 (≈ 0.69 µM)	0.1 (≈ 0.276 µM)	0.5 (≈ 1.38 µM)	0.5 (≈ 1.38 µM)	0.125 (≈ 0.345 µM)
CCCC[C@H](CN(O)C=O)C(=O)N1CCC[C@H]1c1nc2ccccc2o1	0.6 (≈ 1.67 µM)	0.06 (≈ 0.167 µM)	0.5 (≈ 1.39 µM)	0.25 (≈ 0.696 µM)	0.06 (≈ 0.167 µM)
CCCC[C@H](CN(O)C=O)C(=O)N1CCC[C@H]1c1nc2ccccc2[nH]1	0.125 (≈ 0.349 µM)	0.03 (≈ 0.0837 µM)	0.2 (≈ 0.558 µM)	0.25 (≈ 0.697 µM)	0.03 (≈ 0.0837 µM)
